Tests used:
U87EGFRvIII = assay: Broad cell line profiling, U87EGFRvIII; format: cell-based; conditions: Homo sapiens, EGFRvIII Expressing Glioblastoma, read-out: PA IC50
Description: (§1) • A panel of human and mouse cancer cell types used to assess the breadth of PA activity, including multiple therapy resistant metastatic mesenchymal tumor cell lines and primary glioblastoma patient-derived metastatic stem/tumor initiating cell populations.

U118 = assay: Broad cell line profiling, U118; format: cell-based; conditions: Homo sapiens; U118, Glioblastoma; read-out: PA IC50
Description: as §1

GBM-F = assay: Broad cell line profiling, GBM-F; format: cell-based; conditions: Homo sapiens, Glioblastoma Cancer Stem Cell, read-out: PA IC50
Description: as §1

B16-F10 = assay: Broad cell line profiling, B16-F10; format: cell-based; conditions: B16-F10, Mouse Melanoma; read-out: PA IC50
Description: as §1

HT-1080 fibrosarcoma = assay: HT-1080 Tumor Xenograft Model; format: in vivo, mouse; conditions: 0.3 or 1.0 mg/kg, i.p.
Description: FIG. 9. […] (A) Systemic Portimine A in MC38 Syngeneic Tumor Xenograft Model; and (B) Systemic Portimine A in HT-1080 Tumor Xenograft Model.
Preliminary cell-based target engagement studies, based on compound washout, indicates PA is fast acting with <1 hr of exposure resulting in minimal loss of potency. Cmax-driven pharmacology and facile synthetic access to material enabled the evaluation of PA in both a syngeneic (MC38 colon carcinoma) and a human metastatic mesenchymal (HT-1080 fibrosarcoma) mouse tumor xenograft model. […] Metabolic stability represents an opportunity for an additional IP position.
• 1) Portimine A and its functional analogs show stereo-selective acute toxicity in cancer cells (FIG. 1). […] (B) Structure of portimine related analogs: phenyl-portimine A (Ph-PA, 36) and epi-portimine A (ePA, 38). Structure of fully functionalized portimine A-based epimeric probe pair: portimine A-diazirine-alkyne (PA-DA, 35-2) and epi-portimine A-diazirine-alkyne (ePA-DA, 35-1). (C) Cell viability analysis of portimine A and analogs. Jurkat cells were treated with increasing concentrations of portimine A and analogs for 24 hours. All presented data as mean of biological replicated experiments (n=3). […] Jurkat cells were treated with portimine A or analogs for 12 hours at 10 nM. […]

C=CC1=C[C@@H]2[C@@H]3O[C@]4(CC[C@H](O4)C(C)C[C@@H](O)C3=O)CC(O)C3=NCC[C@@]32CC1 (some centres unmarked) [PA, portimine A]
IC50 (U87EGFRvIII): 3.4 nM
IC50 (U118): 5.6 nM
IC50 (GBM-F): 2.6 nM
IC50 (B16-F10): 0.75 nM
anti-tumor activity, HT-1080 fibrosarcoma xenograft model (HT-1080 fibrosarcoma): Potent anti-tumor activity

Reference: patent US20260242390A1, “TOTAL SYNTHESES OF PORTIMINE A AND ANALOGUES THEREOF AS SMALL MOLECULE MODULATORS OF NMD3” (priority 2023, published 2026)
